# Source: ChEMBL document CHEMBL1201862, “PubChem BioAssay data set” (2004)
# Calls of active or inactive are those of the source.
# What was measured:
# [1] = inhibitors of clade B AD8 Env fusion, dose response, cell-based, cherry-pick (AID 652062); format: functional;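 note: luciferase signal from cell-cell fusion driven by HIV-1 clade B AD8 Env; potency is for inhibitors of fusion seen as a drop in luminescence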
# Cytochrome P450 3A4 = Cytochrome P450 3A4 (Homo sapiens, UniProt P08684);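 note: CYP3A4 tested as one member of a cytochrome P450 panel screen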
# [2] = inhibitors of HIV Env-driven cell fusion, dose response, cherry-pick (AID 652057); format: functional, cell-based
# [3] = off-target signal loss in HeLa-CEM21 co-culture – HeLa F-luc CTL cells, cherry-picked, counter-screen for HIV-1 Env fusion inhibitor project, dose response (AID 652040); format: functional, cell-based;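 note: potency for signal decrease marking cytotoxic or nonspecific inhibition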
# [4] = ZM109 Env clade C HIV-1 fusion inhibitors, dose response, HeLa effector, CEM target cells, luciferase, cherry-pick (AID 652058); format: functional, cell-based
# [5] = CEM21 lymphoblast cell cytotoxicity, dose response, cytotoxicity control for viral fusion inhibitor project, CellTiter-Glo luminescence, cherry-picked (AID 652042); format: functional, cell-based;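 note: potency for signal decrease meaning cytotoxicity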
# Albumin = Albumin (Bos taurus, UniProt P02769); assay: Counterscreen for inhibitors of T-cell receptor (TCR)-CD3 interaction: Fluorescence-based biochemical high throughput dose response assay to identify inhibitors of T-cell receptor (TCR)-CD3 interaction using a TAMRA-labeled BSA probe.; format: functional
# [6] = molecular target: T1, Histone-lysine N-methyltransferase NSD2 (Homo sapiens, UniProt O96028); format: biochemical
# T1 sequence (O96028 whole entry): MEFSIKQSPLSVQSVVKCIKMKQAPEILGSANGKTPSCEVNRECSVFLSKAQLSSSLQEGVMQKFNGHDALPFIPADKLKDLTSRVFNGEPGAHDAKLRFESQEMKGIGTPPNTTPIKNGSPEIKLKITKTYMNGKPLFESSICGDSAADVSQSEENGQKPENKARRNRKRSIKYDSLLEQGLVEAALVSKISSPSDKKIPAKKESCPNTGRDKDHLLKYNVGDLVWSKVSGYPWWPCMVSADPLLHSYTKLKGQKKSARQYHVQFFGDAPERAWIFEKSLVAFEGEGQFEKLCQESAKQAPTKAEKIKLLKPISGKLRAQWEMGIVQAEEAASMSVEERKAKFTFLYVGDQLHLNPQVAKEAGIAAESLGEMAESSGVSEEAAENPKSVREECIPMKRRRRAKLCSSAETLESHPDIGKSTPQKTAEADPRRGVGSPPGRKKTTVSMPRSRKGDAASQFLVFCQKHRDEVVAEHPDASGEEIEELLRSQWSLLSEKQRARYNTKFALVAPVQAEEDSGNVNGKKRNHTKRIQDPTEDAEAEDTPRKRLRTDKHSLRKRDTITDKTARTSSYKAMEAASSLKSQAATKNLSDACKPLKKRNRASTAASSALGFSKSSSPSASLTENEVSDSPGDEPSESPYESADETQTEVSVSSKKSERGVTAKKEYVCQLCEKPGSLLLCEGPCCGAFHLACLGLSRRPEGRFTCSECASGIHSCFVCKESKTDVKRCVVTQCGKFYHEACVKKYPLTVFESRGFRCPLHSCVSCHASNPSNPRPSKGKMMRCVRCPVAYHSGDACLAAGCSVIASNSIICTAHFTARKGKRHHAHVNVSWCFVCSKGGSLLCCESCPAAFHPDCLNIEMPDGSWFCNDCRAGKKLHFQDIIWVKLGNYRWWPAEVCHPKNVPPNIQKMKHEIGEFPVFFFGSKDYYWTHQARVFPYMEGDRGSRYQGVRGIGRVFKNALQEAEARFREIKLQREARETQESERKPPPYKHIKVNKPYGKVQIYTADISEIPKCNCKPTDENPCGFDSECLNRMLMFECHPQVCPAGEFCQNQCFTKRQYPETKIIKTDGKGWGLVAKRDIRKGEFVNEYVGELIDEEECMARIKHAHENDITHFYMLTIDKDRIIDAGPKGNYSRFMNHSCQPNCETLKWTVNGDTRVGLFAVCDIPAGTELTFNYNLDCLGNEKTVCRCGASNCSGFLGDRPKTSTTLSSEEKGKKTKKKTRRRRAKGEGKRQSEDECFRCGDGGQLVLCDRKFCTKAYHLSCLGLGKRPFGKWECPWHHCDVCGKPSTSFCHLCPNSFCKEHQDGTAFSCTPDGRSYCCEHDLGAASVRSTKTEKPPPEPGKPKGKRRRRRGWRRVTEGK
# Large T antigen = Large T antigen (Simian virus 40, UniProt P03070); format: functional, Betapolyomavirus macacae;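 note: Confirmatory-stage PubChem screen for compounds that inhibit SV40 T antigen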
# Beta-lactamase [7] = molecular target: Beta-lactamase (Salmonella choleraesuis (strain SC-B67), UniProt Q5J463); assay: Epi-absorbance-based counterscreen for selective VIM-2 inhibitors: dose response biochemical high throughput screening assay to identify inhibitors of TEM-1 serine-beta-lactamase.
# Beta-lactamase [8] = molecular target: T2, Beta-lactamase (Pseudomonas aeruginosa, UniProt Q79MP6); assay: IMP-1 metallo-beta-lactamase inhibitors, dose response, selectivity assay for VIM-2 inhibitor project, biochemical, epi-absorbance (AID 1920)
# Beta-lactamase [9] = molecular target: T2, Beta-lactamase; assay: […] counterscreen for selective VIM-2 inhibitors: dose response biochemical high throughput screening assay to identify inhibitors of IMP-1 metallo-beta-lactamase.
# [10] = molecular target: T3, Heat shock factor protein 1 (Mus musculus, UniProt P38532); assay: HSF1 potentiators in luciferase reporter cells, confirmation, cell-based, NIH3T3, luminescence, dose retest (AID 435004); format: functional;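 note: stress induced by proteasome inhibitor MG132 added 30 min after compound; luciferase reporter driven by HSF1 response element in NIH3T3 cells; actives raise luminescence as potentiators of the MG132 stress response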
# T3 sequence (P38532 whole entry): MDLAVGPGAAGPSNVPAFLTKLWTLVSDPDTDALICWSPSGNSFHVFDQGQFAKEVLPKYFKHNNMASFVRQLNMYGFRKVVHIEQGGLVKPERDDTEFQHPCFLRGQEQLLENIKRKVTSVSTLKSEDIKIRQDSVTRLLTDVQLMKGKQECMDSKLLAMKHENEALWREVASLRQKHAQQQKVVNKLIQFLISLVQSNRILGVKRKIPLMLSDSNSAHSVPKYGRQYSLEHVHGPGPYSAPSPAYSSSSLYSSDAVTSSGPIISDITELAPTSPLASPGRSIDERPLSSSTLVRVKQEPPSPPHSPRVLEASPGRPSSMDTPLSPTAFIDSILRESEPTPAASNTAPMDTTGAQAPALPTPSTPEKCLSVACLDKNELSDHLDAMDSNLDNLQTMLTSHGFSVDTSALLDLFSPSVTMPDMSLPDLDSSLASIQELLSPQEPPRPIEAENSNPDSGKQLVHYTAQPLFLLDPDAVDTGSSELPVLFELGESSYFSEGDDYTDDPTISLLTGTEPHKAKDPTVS
# [11] = Counterscreen for activators of the function of SWI/SNF related, matrix associated, actin dependent regulator of chromatin, subfamily a, member 2 (SMARCA2, BRM): Luminescence-based cell-based high throughput dose response assay to identify non-selective compounds using the VP16 reporter assay.; format: functional
# [12] = molecular target: SWI/SNF-related matrix-associated actin-dependent regulator of chromatin subfamily A member 2 (Homo sapiens, UniProt P51531); assay: Luminescence-based cell-based high throughput dose response assay to identify activators of the function of SWI/SNF related, matrix associated, actin dependent regulator of chromatin, subfamily a, member 2 (SMARCA2, BRM).; format: functional
# [13] = NIH/3T3 fibroblast cytotoxicity, dose response, cytotoxicity control for T. cruzi growth inhibitor project, cell-based, cherry-pick samples, set 2 (AID 651817); format: functional; settings: NIH3T3
# [14] = inhibitors of CMV-promoter luciferase reporter, dose response, counter-screen for Pax8 inhibitor project, cell-based, HEK293, luminescence, dry powder (AID 743020); format: functional
# [15] = molecular target: T4, Sentrin-specific protease 8 (Homo sapiens, UniProt Q96LD8); format: functional
# T4 sequence (Q96LD8 whole entry): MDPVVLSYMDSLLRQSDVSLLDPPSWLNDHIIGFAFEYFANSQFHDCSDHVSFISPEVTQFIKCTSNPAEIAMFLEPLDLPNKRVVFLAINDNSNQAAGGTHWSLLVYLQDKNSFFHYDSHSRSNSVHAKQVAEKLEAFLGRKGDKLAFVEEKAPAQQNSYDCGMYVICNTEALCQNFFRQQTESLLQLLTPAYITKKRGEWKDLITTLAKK
# [16] = molecular target: T5, Apoptotic protease-activating factor 1 (Homo sapiens, UniProt O14727); format: functional
# T5 sequence (O14727 whole entry): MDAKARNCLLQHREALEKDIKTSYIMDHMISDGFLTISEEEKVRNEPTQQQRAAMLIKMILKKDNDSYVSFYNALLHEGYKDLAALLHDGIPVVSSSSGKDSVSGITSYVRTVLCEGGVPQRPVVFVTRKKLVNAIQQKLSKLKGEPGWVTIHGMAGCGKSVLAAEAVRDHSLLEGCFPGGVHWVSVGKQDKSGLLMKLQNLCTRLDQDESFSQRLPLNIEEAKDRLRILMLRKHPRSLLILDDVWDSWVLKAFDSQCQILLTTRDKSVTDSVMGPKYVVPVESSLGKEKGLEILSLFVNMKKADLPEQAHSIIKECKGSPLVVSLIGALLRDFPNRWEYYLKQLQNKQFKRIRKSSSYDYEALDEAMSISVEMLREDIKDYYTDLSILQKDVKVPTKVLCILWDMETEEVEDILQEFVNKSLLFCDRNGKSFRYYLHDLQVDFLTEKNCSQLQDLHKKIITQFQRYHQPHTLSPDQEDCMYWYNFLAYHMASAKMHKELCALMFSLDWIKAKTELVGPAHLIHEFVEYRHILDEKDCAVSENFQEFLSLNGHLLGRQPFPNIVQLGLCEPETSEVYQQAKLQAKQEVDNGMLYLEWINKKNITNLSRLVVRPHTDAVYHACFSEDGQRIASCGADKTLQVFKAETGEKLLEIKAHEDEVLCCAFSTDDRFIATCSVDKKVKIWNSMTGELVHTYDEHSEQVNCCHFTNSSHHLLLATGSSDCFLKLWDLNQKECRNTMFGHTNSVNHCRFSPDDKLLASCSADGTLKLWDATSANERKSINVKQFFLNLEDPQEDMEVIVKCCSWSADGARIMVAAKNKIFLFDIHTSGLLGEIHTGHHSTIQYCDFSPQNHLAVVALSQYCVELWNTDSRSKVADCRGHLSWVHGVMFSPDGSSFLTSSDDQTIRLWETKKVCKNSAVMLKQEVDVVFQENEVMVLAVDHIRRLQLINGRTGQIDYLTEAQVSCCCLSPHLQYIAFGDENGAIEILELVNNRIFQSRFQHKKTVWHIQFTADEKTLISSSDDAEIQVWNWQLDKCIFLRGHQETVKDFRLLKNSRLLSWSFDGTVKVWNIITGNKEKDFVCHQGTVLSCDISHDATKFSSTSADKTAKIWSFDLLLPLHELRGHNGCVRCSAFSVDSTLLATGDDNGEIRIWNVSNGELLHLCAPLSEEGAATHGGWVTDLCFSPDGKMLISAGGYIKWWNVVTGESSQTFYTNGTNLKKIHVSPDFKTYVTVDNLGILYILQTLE
# [17] = molecular target: T4, Sentrin-specific protease 8; format: functional; remark: listed apart in the source
# [18] = molecular target: T6, Probable nicotinate-nucleotide adenylyltransferase (Staphylococcus aureus (strain N315), UniProt P65502); format: functional, Staphylococcus aureus subsp. aureus N315;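 for IC50 Mean: confirmatory dose-response retesting of NadD inhibitor hits first found in an ultra-high-throughput screen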
# [19] = molecular target: T6, Probable nicotinate-nucleotide adenylyltransferase; format: functional, Staphylococcus aureus subsp. aureus N315; settings: read-out: IC50_Mean
# Fatty acid synthase [20] = molecular target: T7, Fatty acid synthase (Homo sapiens, UniProt P49327); assay: FAS thioesterase domain inhibitors, dose response, biochemical, kinetic fluorescence intensity (AID 624326); format: functional;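 note: rate of fluorescence rise from hydrolysis of a fluorogenic O-methyl fluorescein ester substrate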
# Fatty acid synthase [21] = molecular target: T7, Fatty acid synthase; assay: FAS thioesterase domain inhibitors, dose response, biochemical, endpoint fluorescence intensity, uHTS hits (AID 624327); format: functional;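 note: fluorescence from hydrolysis of an O-methyl fluorescein acyl ester substrate by the enzyme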
# T2 sequence (Q79MP6 whole entry): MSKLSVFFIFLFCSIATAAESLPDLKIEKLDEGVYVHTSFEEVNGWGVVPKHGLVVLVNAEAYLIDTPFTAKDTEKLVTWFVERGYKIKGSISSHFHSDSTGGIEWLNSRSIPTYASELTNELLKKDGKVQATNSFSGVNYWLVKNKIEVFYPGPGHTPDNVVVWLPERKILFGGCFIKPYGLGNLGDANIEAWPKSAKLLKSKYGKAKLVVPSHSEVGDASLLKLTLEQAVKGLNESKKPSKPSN
# T6 sequence (P65502 whole entry): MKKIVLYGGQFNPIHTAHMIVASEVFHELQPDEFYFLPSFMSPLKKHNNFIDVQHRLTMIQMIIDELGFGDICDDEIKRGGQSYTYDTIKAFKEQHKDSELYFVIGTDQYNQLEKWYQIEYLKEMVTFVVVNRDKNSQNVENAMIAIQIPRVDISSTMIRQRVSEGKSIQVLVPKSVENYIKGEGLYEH
# Chain of Albumin (P02769 whole entry): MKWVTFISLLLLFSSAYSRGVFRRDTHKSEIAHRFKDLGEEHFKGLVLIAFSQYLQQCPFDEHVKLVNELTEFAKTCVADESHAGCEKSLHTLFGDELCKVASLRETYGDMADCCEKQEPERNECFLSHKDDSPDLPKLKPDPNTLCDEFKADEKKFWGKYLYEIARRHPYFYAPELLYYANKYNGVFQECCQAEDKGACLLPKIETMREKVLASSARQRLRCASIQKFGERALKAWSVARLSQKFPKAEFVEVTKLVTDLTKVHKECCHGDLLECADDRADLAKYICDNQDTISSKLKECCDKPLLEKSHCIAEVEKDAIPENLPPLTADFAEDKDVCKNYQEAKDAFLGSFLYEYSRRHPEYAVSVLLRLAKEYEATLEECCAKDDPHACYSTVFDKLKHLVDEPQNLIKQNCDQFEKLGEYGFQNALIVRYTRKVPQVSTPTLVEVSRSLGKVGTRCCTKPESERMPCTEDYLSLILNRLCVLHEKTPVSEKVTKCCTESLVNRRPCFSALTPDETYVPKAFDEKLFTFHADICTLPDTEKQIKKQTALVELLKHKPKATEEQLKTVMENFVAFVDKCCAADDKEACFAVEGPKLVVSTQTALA
# Chain of Beta-lactamase (Salmonella choleraesuis (strain SC-B67), UniProt Q5J463) (Q5J463 whole entry): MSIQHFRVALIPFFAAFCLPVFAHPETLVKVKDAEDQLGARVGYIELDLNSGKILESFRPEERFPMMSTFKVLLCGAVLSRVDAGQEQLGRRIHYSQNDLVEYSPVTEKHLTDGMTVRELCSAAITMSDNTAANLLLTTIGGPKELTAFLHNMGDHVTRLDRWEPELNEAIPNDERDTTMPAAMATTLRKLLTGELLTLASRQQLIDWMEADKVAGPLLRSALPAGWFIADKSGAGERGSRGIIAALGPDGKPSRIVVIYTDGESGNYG
# T7 sequence (P49327 whole entry, the tested form may be a part): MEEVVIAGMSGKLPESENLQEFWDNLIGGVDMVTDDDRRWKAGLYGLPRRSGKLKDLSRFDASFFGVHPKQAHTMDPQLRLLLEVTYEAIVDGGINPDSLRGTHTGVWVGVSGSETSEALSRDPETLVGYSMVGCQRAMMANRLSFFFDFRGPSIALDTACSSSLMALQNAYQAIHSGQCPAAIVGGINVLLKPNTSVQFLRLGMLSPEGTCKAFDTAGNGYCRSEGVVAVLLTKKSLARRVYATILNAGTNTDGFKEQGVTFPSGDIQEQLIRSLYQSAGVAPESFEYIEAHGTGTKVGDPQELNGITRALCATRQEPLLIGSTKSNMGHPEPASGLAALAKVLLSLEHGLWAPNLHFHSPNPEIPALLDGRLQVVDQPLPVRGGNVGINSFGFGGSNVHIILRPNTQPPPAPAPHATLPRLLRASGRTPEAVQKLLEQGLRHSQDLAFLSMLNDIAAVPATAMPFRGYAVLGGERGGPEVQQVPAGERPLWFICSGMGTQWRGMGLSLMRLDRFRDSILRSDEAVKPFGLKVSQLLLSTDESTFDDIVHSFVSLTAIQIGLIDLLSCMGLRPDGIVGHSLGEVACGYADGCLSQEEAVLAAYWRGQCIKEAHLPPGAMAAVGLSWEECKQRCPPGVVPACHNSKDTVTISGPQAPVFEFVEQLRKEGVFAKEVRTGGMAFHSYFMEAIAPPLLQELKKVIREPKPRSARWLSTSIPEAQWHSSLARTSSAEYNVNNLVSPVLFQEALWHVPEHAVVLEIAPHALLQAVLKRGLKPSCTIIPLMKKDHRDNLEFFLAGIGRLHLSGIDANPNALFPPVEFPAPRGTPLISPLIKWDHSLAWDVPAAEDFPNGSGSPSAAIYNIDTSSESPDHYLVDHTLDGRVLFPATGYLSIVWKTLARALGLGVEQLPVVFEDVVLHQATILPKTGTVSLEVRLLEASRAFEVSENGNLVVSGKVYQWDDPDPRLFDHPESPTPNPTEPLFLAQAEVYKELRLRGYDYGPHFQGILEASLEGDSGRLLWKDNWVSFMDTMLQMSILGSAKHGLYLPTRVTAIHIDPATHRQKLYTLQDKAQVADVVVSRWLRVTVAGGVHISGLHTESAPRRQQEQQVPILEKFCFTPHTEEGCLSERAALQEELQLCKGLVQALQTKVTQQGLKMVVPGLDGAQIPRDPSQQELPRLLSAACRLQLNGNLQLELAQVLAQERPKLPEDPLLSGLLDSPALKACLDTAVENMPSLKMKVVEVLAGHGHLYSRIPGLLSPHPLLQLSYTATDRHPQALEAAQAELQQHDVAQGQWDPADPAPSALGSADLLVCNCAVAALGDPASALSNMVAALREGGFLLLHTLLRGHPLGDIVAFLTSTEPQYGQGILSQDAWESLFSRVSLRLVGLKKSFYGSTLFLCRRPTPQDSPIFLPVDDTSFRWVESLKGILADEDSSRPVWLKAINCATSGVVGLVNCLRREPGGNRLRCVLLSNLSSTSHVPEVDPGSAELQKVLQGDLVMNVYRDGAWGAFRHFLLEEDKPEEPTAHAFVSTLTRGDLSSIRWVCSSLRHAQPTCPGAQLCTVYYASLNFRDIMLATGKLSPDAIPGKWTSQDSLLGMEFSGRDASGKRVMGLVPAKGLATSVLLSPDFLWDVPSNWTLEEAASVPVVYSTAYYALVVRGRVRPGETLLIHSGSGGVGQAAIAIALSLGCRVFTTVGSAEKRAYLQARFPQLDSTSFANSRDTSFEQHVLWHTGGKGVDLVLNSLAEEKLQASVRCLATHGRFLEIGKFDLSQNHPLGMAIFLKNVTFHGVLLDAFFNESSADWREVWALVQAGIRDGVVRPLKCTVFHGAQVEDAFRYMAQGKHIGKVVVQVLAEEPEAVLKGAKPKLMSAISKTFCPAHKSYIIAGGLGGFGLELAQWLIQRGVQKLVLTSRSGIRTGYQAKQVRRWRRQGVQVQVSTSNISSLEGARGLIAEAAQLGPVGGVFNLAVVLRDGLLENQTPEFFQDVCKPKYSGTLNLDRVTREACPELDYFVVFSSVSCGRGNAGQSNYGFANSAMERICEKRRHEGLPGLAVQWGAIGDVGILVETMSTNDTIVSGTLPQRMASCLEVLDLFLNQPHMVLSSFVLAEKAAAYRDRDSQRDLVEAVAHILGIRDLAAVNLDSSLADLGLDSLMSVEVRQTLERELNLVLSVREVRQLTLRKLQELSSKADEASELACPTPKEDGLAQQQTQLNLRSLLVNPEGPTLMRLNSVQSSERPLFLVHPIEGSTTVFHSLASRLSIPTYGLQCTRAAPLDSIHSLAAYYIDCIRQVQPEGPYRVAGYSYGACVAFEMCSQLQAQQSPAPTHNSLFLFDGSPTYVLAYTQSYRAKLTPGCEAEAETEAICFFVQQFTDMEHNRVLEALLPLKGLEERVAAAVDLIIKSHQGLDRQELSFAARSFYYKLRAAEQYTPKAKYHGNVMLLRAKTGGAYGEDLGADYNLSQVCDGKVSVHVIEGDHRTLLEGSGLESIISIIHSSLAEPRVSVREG
# Chain of Large T antigen (P03070 whole entry): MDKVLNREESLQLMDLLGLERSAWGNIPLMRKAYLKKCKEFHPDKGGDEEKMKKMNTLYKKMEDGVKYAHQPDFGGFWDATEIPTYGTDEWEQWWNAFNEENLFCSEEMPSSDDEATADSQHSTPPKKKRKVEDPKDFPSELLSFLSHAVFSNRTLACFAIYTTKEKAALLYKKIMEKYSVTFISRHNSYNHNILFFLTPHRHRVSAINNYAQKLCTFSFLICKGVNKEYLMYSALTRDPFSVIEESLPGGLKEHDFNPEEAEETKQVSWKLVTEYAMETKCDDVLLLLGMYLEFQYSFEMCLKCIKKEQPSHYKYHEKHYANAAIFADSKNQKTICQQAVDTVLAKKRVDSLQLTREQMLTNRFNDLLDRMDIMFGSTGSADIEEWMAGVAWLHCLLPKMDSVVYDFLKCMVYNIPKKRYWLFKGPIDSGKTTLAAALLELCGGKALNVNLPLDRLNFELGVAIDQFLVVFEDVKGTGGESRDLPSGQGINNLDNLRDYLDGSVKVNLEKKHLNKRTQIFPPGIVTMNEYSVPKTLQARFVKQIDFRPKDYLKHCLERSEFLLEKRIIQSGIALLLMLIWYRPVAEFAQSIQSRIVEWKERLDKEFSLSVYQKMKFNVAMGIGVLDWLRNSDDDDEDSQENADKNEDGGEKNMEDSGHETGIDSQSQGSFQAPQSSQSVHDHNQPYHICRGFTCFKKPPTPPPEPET
# Chain of Cytochrome P450 3A4 (P08684 whole entry, the tested form may be a part): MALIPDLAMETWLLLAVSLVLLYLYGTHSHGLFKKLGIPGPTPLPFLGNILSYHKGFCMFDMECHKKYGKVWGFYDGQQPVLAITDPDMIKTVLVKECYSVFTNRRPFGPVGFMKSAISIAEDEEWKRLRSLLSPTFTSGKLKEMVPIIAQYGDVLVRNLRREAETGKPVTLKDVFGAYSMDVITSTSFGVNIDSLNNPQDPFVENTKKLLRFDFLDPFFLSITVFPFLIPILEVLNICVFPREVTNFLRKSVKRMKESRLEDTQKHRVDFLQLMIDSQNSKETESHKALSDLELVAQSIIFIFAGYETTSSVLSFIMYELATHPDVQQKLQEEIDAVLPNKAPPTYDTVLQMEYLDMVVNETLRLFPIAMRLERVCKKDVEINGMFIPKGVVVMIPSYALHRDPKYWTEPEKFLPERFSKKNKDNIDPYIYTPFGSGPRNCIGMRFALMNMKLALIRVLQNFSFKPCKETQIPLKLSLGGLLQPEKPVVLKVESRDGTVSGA
smiles,measurement,setting,value
O=S1(=O)CCN(c2ccccc2CC(c2c[nH]c3ccccc23)c2c[nH]c3ccccc23)CC1,AC50,[1],1.06 µM (active)
same,AC50,Cytochrome P450 3A4,2.51 µM (inconclusive)
same,AC50,[2],< 0.26 µM (active)
same,AC50,[3],0.555 µM (active)
same,AC50,[4],< 0.26 µM (active)
same,AC50,[5],24.6 µM (active)
COc1cc(Br)cc2cc(C(=O)N3CCN(C(=O)c4ccco4)CC3)c(=O)oc12,IC50,Albumin,> 94.1 µM (inactive)
Cc1c(CC(=O)N2CCN(C(=O)C3COc4ccccc4O3)CC2)c(=O)oc2c(O)c(O)ccc12 (centres undefined),AC50,[6],3.53 µM (active)
same,IC50,Albumin,> 94.1 µM (inactive)
same,IC50,Large T antigen,2.43 µM (active)
O=C(CSc1nnc(NC(=O)c2ccccc2F)s1)NCc1ccc(F)cc1,IC50,Beta-lactamase [7],> 59.6 µM (inactive)
same,IC50,Beta-lactamase [8],> 59.6 µM (inactive)
same,IC50,Beta-lactamase [9],> 59.6 µM (inactive)
CCCc1cc(=O)oc2c3c(cc(OCC(=O)N[C@@H](C)C(=O)O)c12)OC(C)(C)CC3,IC50,Beta-lactamase [7],> 59.6 µM (inactive)
same,IC50,Beta-lactamase [8],> 59.6 µM (inactive)
same,IC50,Beta-lactamase [9],> 59.6 µM (inactive)
same,EC50,[10],> 260 µM (inactive)
NC(CCc1ccccc1)c1csc(Nc2ccccn2)n1 (centres undefined),AC50,[1],22.6 µM (active)
same,AC50,[2],6.61 µM (active)
same,AC50,[3],3.22 µM (active)
same,AC50,[4],7.52 µM (active)
same,AC50,[5],38.1 µM (active)
CCCCCCN[C@H]1CCC2C3CC=C4C[C@@H](O)CC[C@]4(C)C3CC[C@@]21C (some centres undefined),EC50,[11],> 91.2 µM (inactive)
same,EC50,[12],> 91.2 µM (inactive)
C[C@H](CO)N1C[C@H](C)[C@@H](CN(C)Cc2ccc(Cl)c(Cl)c2)Oc2ccc(NS(=O)(=O)c3ccc(F)cc3)cc2CC1=O,AC50,[13],10.6 µM (active)
Cc1ccc(S(=O)(=O)Nc2ccc3c(c2)CC(=O)N([C@@H](C)CO)C[C@@H](C)[C@@H](CN(C)S(=O)(=O)c2ccc(Cl)cc2)O3)cc1,AC50,[13],35 µM (active)
C[C@@H]1CN([C@@H](C)CO)C(=O)CCCn2nncc2CO[C@H]1CN(C)S(=O)(=O)c1ccc(Cl)cc1,AC50,[14],< 1 µM (active)
Cc1nn(-c2ccc(Cl)cc2)c(O)c1C(c1ccccc1O)c1c(C)[nH]n(-c2ccc(Cl)cc2)c1=O (centres undefined),IC50,[15],32.9 µM (active)
same,IC50,[16],13.3 µM (active)
same,IC50,[17],8.38 µM (active)
same,IC50,[18],6.68 µM (active)
same,IC50,[19],21.1 µM (active)
COc1ccc(/C=N\NC(=O)CNC(=O)C(c2ccccc2)c2ccccc2)cc1[N+](=O)[O-],IC50,Fatty acid synthase [20],12.3 µM (active)
same,IC50,Fatty acid synthase [21],16.6 µM (active)
